According to ChEMBL document CHEMBL5260847, “Current scenario of indole derivatives with potential anti-drug-resistant cancer activity” (Eur J Med Chem, 2020):

Assays:
LNCaP = test: Cytotoxicity activity against human LNCaP cells assessed as reduction in cell viability; assay type: functional, cell-based
K562 [1] = test: Cytotoxicity activity against […] human K562 cells assessed as reduction in cell viability measured after 72 hrs by CCK-8 assay; assay type: functional, cell-based; details: K562, 72 h
K562 [2] = test: Antiproliferative activity against human K562 cells assessed as reduction in cell growth measured after 24 hrs by CCK-8 assay; assay type: functional, cell-based; details: K562, 24 h
K562/Adr = test: Cytotoxicity activity against doxorubicin-resistant human K562/Adr cells assessed as reduction in cell viability measured after 72 hrs by CCK-8 assay; assay type: functional, cell-based
H69AR [3] = test: Antiproliferative activity against multidrug resistant human NCI-H69AR assessed as inhibition of cell proliferation by MTT assay; assay type: functional, cell-based
IEC-6 = test: Antiproliferative activity against rat IEC-6 cells assessed as reduction in cell viability measured after 48 hrs by MTT assay; assay type: functional, cell-based; details: IEC-6, 48 h
[4] = Selectivity index, ratio of IC50 for antiproliferative activity against human MCF-10A cells to IC50 for antiproliferative activity against […] cells by MTT assay; assay type: toxicity, cell-based; details: MCF-10A cells and IEC-6 cells, read-out: Selectivity Index
ZR-75-1 [5] = test: Antiproliferative activity against human ZR-75-1 cells assessed as reduction in cell viability celltiter-Glo assay; assay type: functional, cell-based
H69AR [6] = test: Antiproliferative activity against multi-drug resistant human NCI-H69AR assessed as reduction in cell viability; assay type: functional, cell-based
A549 [7] = test: Antiproliferative activity against drug-sensitive human A549 cells assessed as reduction in cell viability by MTT assay; assay type: functional, cell-based
HT-29 [8] = test: Antiproliferative activity against human HT-29 cells assessed as reduction in cell viability celltiter-Glo assay; assay type: functional, cell-based
HCT-116 = test: Antiproliferative activity against multi-drug - resistant human HCT-116 cells assessed as reduction in cell viability; assay type: functional, cell-based
HCT-15 = test: Antiproliferative activity against multidrug-resistant human HCT-15 cells assessed as reduction in cell viability; assay type: functional, cell-based
A549 [9] = test: Antiproliferative activity against multi-drug resistant human A549 cells assessed as reduction in cell viability; assay type: functional, cell-based
HT-29 [10] = test: Cytotoxicity activity against human HT-29 cells assessed as reduction in cell growth measured after 72 hrs by MTT assay; assay type: functional, cell-based; details: HT-29, 72 h
K562 [11] = test: Cytotoxicity against human K562 cells assessed as reduction in cell viability incubated for 72 hrs by MTT assay; assay type: functional, cell-based; details: K562, 72 h
MCF-10A = test: Antiproliferative activity against human MCF-10A cells assessed as reduction in cell viability measured after 48 hrs by MTT assay; assay type: functional, cell-based
HT-29 [12] = test: Antiproliferative activity against drug-sensitive human HT-29 cells assessed as reduction in cell viability by MTT assay; assay type: functional, cell-based
ZR-75-1 [13] = test: Antiproliferative activity against multi-drug resistant human ZR-75-1 cells assessed as reduction in cell viability; assay type: functional, cell-based
PC-3 [14] = test: Antitumor activity in human PC-3 cells xenografted immunodeficient ICR mouse assessed as reduction in tumor growth at 0.5 mg/kg, ip administered for 2 weeks in presence of vinblastine; assay type: functional; set-up: scale not given: the % may be the effect or the level left
PC-3 [15] = test: Antitumor activity in human PC-3 cells xenografted immunodeficient ICR mouse assessed as reduction in tumor growth at 25 mg/kg, ip administered for 2 weeks; assay type: functional; set-up: scale not given: the % may be the effect or the level left
SW-620 = test: Cytotoxicity against human SW620 cells assessed as reduction in cell viability measured after 48 hrs by SRB assay; assay type: functional, cell-based; details: SW-620, 48 h
DLD-1 = test: Cytotoxicity against human DLD-1 cells assessed as reduction in cell viability measured after 48 hrs by SRB assay; assay type: functional, cell-based; details: DLD-1, 48 h
MCF7 [16] = test: Cytotoxicity against human MCF7 cells assessed as reduction in cell viability measured after 48 hrs by SRB assay; assay type: functional, cell-based; details: MCF7, 48 h
SK-OV-3 = test: Cytotoxicity against human SK-OV-3 cells assessed as reduction in cell viability measured after 48 hrs by SRB assay; assay type: functional, cell-based; details: SK-OV-3, 48 h
HT-29 [17] = test: Cytotoxicity activity against human HT-29 cells assessed as reduction in cell viability by SRB assay; assay type: functional, cell-based
A549 [18] = test: Antiproliferative activity against human A549 cells assessed as inhibition of cell growth measured after 72 hrs by SRB assay; assay type: functional, cell-based; details: A549, 72 h
[19] = Antiproliferative activity against human KB-VIN cells assessed as reduction in cell viability measured after 72 hrs by SRB assay; assay type: functional, cell-based; details: KBVIN
A549 [20] = test: Cytotoxicity activity against human A549 cells assessed as reduction in cell viability by SRB assay; assay type: functional, cell-based
MCF7 [21] = test: Antiproliferative activity against human MCF7 cells assessed as inhibition of cell proliferation incubated for 72 hrs by MTT assay; assay type: functional, cell-based; details: MCF7, 72 h
HepG2 = test: Anticancer activity against human HepG2 cells assessed as inhibition of cell growth; assay type: functional, cell-based

## CC[C@]1(O)C[C@H]2CN(CCc3c([nH]c4ccccc34)[C@@](C(=O)OC)(c3cc4c(cc3OC)N(C=O)[C@H]3[C@@](O)(C(=O)OC)[C@H](OC(C)=O)[C@]5(CC)C=CCN6CC[C@]43[C@@H]65)C2)C1 [VINCRISTINE]
LNCaP
  IC50: 2600 nM

## COc1cc([C@@H]2c3cc4c(cc3[C@H](OC(=O)c3ccc5cc[nH]c5c3)[C@H]3COC(=O)[C@H]23)OCO4)cc(OC)c1OC
K562 [1]
  IC50: 19 nM
K562 [2]
  IC50: 43 nM
K562/Adr
  IC50: 245 nM

## O=C1Nc2ccc(Cl)cc2/C1=N/N=C/c1nc(-c2ccccc2)cs1
H69AR [3]
  IC50: 16600 nM
IEC-6
  IC50: 8980 nM
[4]
  selectivity ratio: 1.8
ZR-75-1 [5]
  IC50: 1950 nM
H69AR [6]
  IC50: 16000 nM
A549 [7]
  IC50: 10100 nM
HT-29 [8]
  IC50: 7250 nM

## [O-][n+]1onc2c3cc[nH]c3ccc21
HCT-116
  IC50: 2060 nM
HCT-15
  IC50: 690 nM

## CCOC(=O)c1c(-c2ccccc2)oc2ccc(OCCCCCCN3C(=O)C(=O)c4ccccc43)cc12
A549 [9]
  IC50: 47600 nM

## COc1cccc2c1C(=O)c1c(O)c3c(c(O)c1C2=O)C[C@@](O)(C(=O)CO)C[C@@H]3O[C@H]1C[C@H](N)[C@H](O)[C@H](C)O1 [DOXORUBICIN]
HT-29 [10]
  IC50: 1480 nM
K562 [11]
  IC50: > 168000 nM

## O=C1Nc2ccc(Cl)cc2/C1=N/N=C/c1ccn[nH]1
H69AR [3]
  IC50: 16000 nM
MCF-10A
  IC50: 3420 nM
[4]
  selectivity ratio: 1.6
HT-29 [12]
  IC50: 5870 nM
ZR-75-1 [5]
  IC50: 1370 nM
H69AR [6]
  IC50: 16600 nM
ZR-75-1 [13]
  IC50: 1370 nM
HT-29 [8]
  IC50: 2750 nM

## CC1(C)C([C@@H](Cc2c[nH]c3ccccc23)C(=O)OCc2ccccc2)C(=O)[C@@H]2Cc3c([nH]c4ccccc34)CN21 (stereo partly drawn)
PC-3 [14]
  Activity: 50%
PC-3 [15]
  Activity: 40%

## COc1ccc(C(=O)/C=C/c2nccc3c2[nH]c2ccccc23)cc1OC
SW-620
  IC50: 10000 nM
DLD-1
  IC50: 2500 nM
MCF7 [16]
  IC50: 1250 nM
SK-OV-3
  IC50: 5000 nM

## C/C=C1/CN2[C@H]3C[C@@H]1C(CO)[C@@H]2Cc1c3n(C)c2cc(C[C@H]3[C@@H]4C[C@H]5c6c(c7ccccc7n6C)C[C@@H]([C@@H]4CO[C@]3(C)OC)N5C)c(OC)cc12 (stereo partly drawn)
HT-29 [17]
  IC50: 20 nM

## CC[C@@H]1C[C@@H]2CN3CCc4c([nH]c5c([C@H]6CC7[C@]8(O[C@@H]8C)[C@@H]8OC[C@@]7(C(=O)OC)[C@H](Cc7c6[nH]c6ccccc76)N8C)c(OC)ccc45)[C@@](C(=O)OC)(C2)[C@@H]13
A549 [18]
  IC50: 3100 nM
[19]
  IC50: 2600 nM
A549 [20]
  IC50: 4800 nM
MCF7 [21]
  IC50: 12900 nM

## CO/N=C1\C(=O)N(Cc2cn(CCOCCN3C(=O)/C(=N/OC)c4ccccc43)nn2)c2ccccc21
HepG2
  IC50: 180 nM

## C/C=C1\CN(C)[C@H]2Cc3c([nH]c4ccccc34)[C@@H](c3ccc4[nH]c5c(c4c3OC)CCN3C[C@H]4CC[C@H]5[C@H]3[C@@H]4CC)C[C@H]1[C@@H]2C(=O)OC
HT-29 [17]
  IC50: 930 nM
A549 [20]
  IC50: 6800 nM
